Experimental data: patent US20060165744A1, “Combination liposomal formulations” (NeoPharm, Inc, priority 2003, published 2006)

Tests used:
[1] = system: P388/ADR (Adriamycin-resistant murine leukemia) cells; test: Cytotoxicity by sulforhodamine B assay, P388/ADR; format: cell-based; conditions: Mus musculus, treated 48 hrs, read-out: GI50 values (mM) against drug-resistant cancer cell lines
Method: (§1) SKVLB (Vincristine-resistant human ovarian) cells were obtained from Georgetown University and maintained in RPMI 1640 medium containing 10% heat-inactivated FBS, penicillin (100 units/mL) and streptomycin ([…]) with […] Vincristine. P388/ADR (Adriamycin-resistant murine leukemia) cells were purchased from National Cancer Institute (Frederick, Md.) and maintained in RPMI 1640 medium containing 10% heat-inactivated FBS, penicillin (100 units/mL) and streptomycin ([…]). SKVLB cells were cultured in drug-free media for at least a week before studies. The cells (10,000 cells/well for SKVLB and 25,000 cells/well for P388/ADR) were plated in a 96-well plate overnight and treated with doxorubicin, LEP or LEPD for 48 hrs. After incubation, the cytotoxicity was determined by a sulforhodamine B assay.

[2] = system: P388/ADR cells; test: Anti-tumor efficacy on tumor bearing mice (increase in lifespan); format: in vivo, CD2F1 female mice; conditions: 1.0 mg/kg DOX, I.V. for five consecutive days
Method: After 24 hours, mice were randomly divided into different treatment groups (5 mice/group) and vehicle controls or test article formulations were administered I.V. for five consecutive days. Injection volume was based on individual mouse body w eight. Mice were weighed prior to dosing on Days 1-5. […] Mean survival time (MST) was determined and the percent increase in lifespan (% ILS) was calculated as follows: % ILS=[(100×MST of Treatment Group)/(MST of Control Group)]−100% ILS≧25% is considered as a positive response.

[3] = Percent entrapment of doxorubicin or mitoxantrone in reconstituted LEP (Sephardex G-25 column, UV absorbance); format: physicochemical
Method: Either doxorubicin (0.5 to 1.5 mg/ml) or mitoxantrone (0.5 to 1.5 mg/ml) was dissolved in deionized water, and these solutions were employed to reconstitute the lyophilized LEP cakes. The drug to lipid ratio varied from 1:120 to 1:24 (wt/wt) for doxorubicin and 1:120 to 1:24 (wt/wt) for mitoxantrone. Following reconstitution, the liposomal preparation was subjected to column chromatography using Sephardex G-25 to separate the free doxorubicin or mitoxantrone from the drug bound to the liposomes. The pre and post column samples were solubilized in methanol and the absorbance values were measured at appropriate wavelengths. The absorbance of doxorubicin (480 nm) and mitoxantrone (660 nm) was measured in the formulations both prior to and after column chromatography, and the percent entrapment was calculated using the following equation: % entrapment=[absorbance of drug after column/absorbance of drug before column]×100

[4] = system: SKVLB (Vincristine-resistant human ovarian) cells; test: Cytotoxicity by sulforhodamine B assay, SKVLB; format: cell-based; conditions: treated 48 hrs, read-out: GI50 values (mM) against drug-resistant cancer cell lines
Method: as §1

[5] = Effect of mitoxantrone or doxorubicin loading on entrapment of paclitaxel in LEP-ETU; format: physicochemical
Method: Mitoxantrone or doxorubicin (0.5 to 1.5 mg) was loaded into LEP-ETU.

SMILES: COc1cccc2c1C(=O)c1c(O)c3c(c(O)c1C2=O)C[C@@](O)(C(=O)CO)C[C@@H]3O[C@H]1C[C@H](N)[C@H](O)[C@H](C)O1 [Doxorubicin (DOX), doxorubicin]
- GI50 [1]: 0.015 mM
- % ILS [2]: 18.20%
- DOX % Entrapment UV 480 nm ([3]; Initial DOX concentration 0.50 mg/mL): 93%
- DOX % Entrapment UV 480 nm ([3]; Initial DOX concentration 0.75 mg/mL): 92%
- DOX % Entrapment UV 480 nm ([3]; Initial DOX concentration 1.00 mg/mL): 90%
- DOX % Entrapment UV 480 nm ([3]; Initial DOX concentration 1.50 mg/mL): 78%
- GI50 [4]: 0.016 mM

SMILES: O=C1c2c(O)ccc(O)c2C(=O)c2c(NCCNCCO)ccc(NCCNCCO)c21 [MTO, mitoxantrone]
- MTO % Entrapment UV 660 nm ([3]; Initial MTO concentration 0.50 mg/mL): 97%
- MTO % Entrapment UV 660 nm ([3]; Initial MTO concentration 0.75 mg/mL): 99%
- MTO % Entrapment UV 660 nm ([3]; Initial MTO concentration 1.00 mg/mL): 100%
- MTO % Entrapment UV 660 nm ([3]; Initial MTO concentration 1.50 mg/mL): 101%

SMILES: CC(=O)O[C@H]1C(=O)[C@@]2(C)[C@H]([C@H](OC(=O)c3ccccc3)[C@]3(O)C[C@H](OC(=O)[C@H](O)[C@@H](NC(=O)c4ccccc4)c4ccccc4)C(C)=C1C3(C)C)[C@]1(OC(C)=O)CO[C@@H]1C[C@@H]2O [Paclitaxel, paclitaxel]
- Paclitaxel Entrapment (%) With DOX ([5]; Initial DOX 0.50 mg/mL): 102%
- Paclitaxel Entrapment (%) With DOX ([5]; Initial DOX 0.75 mg/mL): 102%
- Paclitaxel Entrapment (%) With DOX ([5]; Initial DOX 1.00 mg/mL): 102%
- Paclitaxel Entrapment (%) With DOX ([5]; Initial DOX 1.50 mg/mL): 109%
